Laboratory results taken from patent US20150087856A1, “MELANIN PRODUCTION INHIBITOR” (TAKASAGO INTERNATIONAL CORPORATION, priority 2012, published 2015).

Key:
Format in all cases: cell-based
[1] = test system: B-16 melanoma cells; assay: Visual Evaluation Test for Melanin Production Inhibition in Pigment Cells; design: key to Visual evaluation of melanin production inhibition (whiteness of cell sediment): −: The same as the solvent control (black); +: Slightly different from the solvent control (dark gray); ++: Apparently different from the solvent control (light gray); +++: Cells were not colored (white); settings: for Visual evaluation of melanin production inhibition (whiteness of cell sediment): B-16 melanoma cells, four days
Description: In plastic culture flasks (25 cm^2), B-16 melanoma cells were seeded at 5×10^4 per flask, and cultured in DMEM (Dulbecco's Modified Eagle's Medium) containing 10% serum [Nippon Suisan Kaisha, Ltd, trade name] in the presence of 5% carbon dioxide at a temperature of 37° C. On the next day, each test sample diluted with ethanol was added at concentrations in the medium of 3.13, 6.25, 12.5, 25, and 50 ppm, and the cells were cultured for further four days. After the culturing was finished, the medium was removed, and the cells were rinsed with phosphate buffered solution (hereinafter, referred to as PBS). Then, the cells were detached from each flask by using trypsin-containing PBS, and were harvested from the cell suspension by centrifugation. After the obtained cells were rinsed once with PBS, the whiteness of the sediment was visually observed. Compounds 2A and 2B were used as comparative materials.
Activity: The activity was evaluated by using the following four grades. −: The same as the solvent control (black) +: Slightly different from the solvent control (dark gray) ++: Apparently different from the solvent control (light gray) +++: Cells were not colored (white)

[2] = test system: B-16 melanoma cells; assay: Quantification Test for Melanin Production Inhibition in Pigment Cells (melanin inhibition ratio); settings: 6.25 ppm; for Melanin production inhibition ratio: B-16 melanoma cells, two days; for Melanin production-inhibitory activity compared with arbutin in the quantification test: comparison with arbutin
Description: (§1) In plastic culture flasks (25 cm^2), B-16 melanoma cells were seeded at 5×10^4 per flask, and cultured in DMEM containing 10% serum in the presence of 5% carbon dioxide at a temperature of 37° C. After culturing for three days, each test sample diluted with ethanol was added at a concentration in the medium of 6.25 ppm, and the cells were culture for further two days. After the culturing was finished, the medium was removed, and the cells were rinsed with phosphate buffered solution (hereinafter referred to as PBS). Then, the cells were detached from each flask by using trypsin-containing PBS, and harvested from the cell suspension by centrifugation. To the obtained cells, 2 ml of DMEM was added, and the cells were dispersed by gentle pipetting. Of the DMEM, 100 μl was diluted with DMEM to achieve 1×10^4 to 5×10^5 cells/ml. Then, the number of the cells was counted with Scepter™ 2.0 automated cell counter (Merck Millipore), and the cell growth ratio was determined. The cell growth ratio was determined by the following formula.
The rest of the cell suspension was again centrifuged, and the medium was removed. After that, an operation in which the cells were rinsed with 1 ml of very cool 5% trichloroacetic acid and centrifuged was repeated three times, and further the cells were rinsed twice by adding 1 ml of ethanol/ethyl ether (3:1 volume ratio) and centrifuged. Finally, the cells were rinsed once with 1 ml of ethyl ether, centrifuged, and air-dried over night. To the dried cells, 2 N NaOH was added, and melanin in the cells was dissolved in a water bath of 60° C. After cooling, the absorbance at 415 nm was measured by using a microplate reader (BIO-RAD MICROPLATE READER Benchmark-). From the measured value, the amount of melanin per 10^6 cells was calculated by conversion using a standard curve obtained by using synthesized melanin (NACALAI TESQUE, INC.), and the melanin inhibition ratio was determined. The melanin inhibition ratio was determined by the following formula:
Melanin inhibition ratio (%)=[(amount of melanin of control−amount of melanin of sample)/(amount of melanin of control)]×100

[3] = test system: B-16 melanoma cells; assay: Cell growth ratio in the quantification test (cell count); settings: 6.25 ppm, two days, relative to control
Description: as §1
Cell growth ratio (%)=(number of cells of sample/number of cells of control)×100

2-isopropyl-5-methylcyclohexanols [Compound 1H]
Visual evaluation of melanin production inhibition (whiteness of cell sediment) ([1]; 3.13 ppm in medium): + | Visual evaluation of melanin production inhibition (whiteness of cell sediment) ([1]; 6.25 ppm in medium): ++ | Visual evaluation of melanin production inhibition (whiteness of cell sediment) ([1]; 12.5 ppm in medium): +++ | Activity compared with arbutin in the visual evaluation test ([1]; comparison with arbutin): almost the same activity as that of arbutin | Melanin production inhibition ratio [2]: 49.0% | Melanin production-inhibitory activity compared with arbutin in the quantification test [2]: higher melanin production-inhibitory activity than arbutin | Cell growth ratio [3]: 102.1%

CC(C)[C@@H]1CC[C@@H](C)C[C@@H]1O (relative stereo) [Compound 1I, (1S*,2S*,5R*)-2-isopropyl-5-methylcyclohexanol]
Visual evaluation of melanin production inhibition (whiteness of cell sediment) ([1]; 6.25 ppm in medium): + | Visual evaluation of melanin production inhibition (whiteness of cell sediment) ([1]; 12.5 ppm in medium): +++

CC(C)[C@H]1CC[C@@H](C)C[C@@H]1O (relative stereo) [Compound 1J, (1S*,2R*,5R*)-2-isopropyl-5-methylcyclohexanol]
Visual evaluation of melanin production inhibition (whiteness of cell sediment) ([1]; 6.25 ppm in medium): + | Visual evaluation of melanin production inhibition (whiteness of cell sediment) ([1]; 12.5 ppm in medium): +++

CC(C)[C@H]1CC[C@@H](C)C[C@H]1O (relative stereo) [Compound 1K, (1R*,2R*,5R*)-2-isopropyl-5-methylcyclohexanol]
Visual evaluation of melanin production inhibition (whiteness of cell sediment) ([1]; 6.25 ppm in medium): + | Visual evaluation of melanin production inhibition (whiteness of cell sediment) ([1]; 12.5 ppm in medium): +++

OC[C@H]1O[C@@H](Oc2ccc(O)cc2)[C@H](O)[C@@H](O)[C@@H]1O [Arbutin, arbutin, reference compound]
Visual evaluation of melanin production inhibition (whiteness of cell sediment) ([1]; 3.13 ppm in medium): + | Visual evaluation of melanin production inhibition (whiteness of cell sediment) ([1]; 6.25 ppm in medium): ++ | Visual evaluation of melanin production inhibition (whiteness of cell sediment) ([1]; 12.5 ppm in medium): +++ | Melanin production inhibition ratio [2]: 35.5% | Cell growth ratio [3]: 94.1%

C=C(C)[C@@H]1CC[C@@H](C)C[C@H]1O [Compound 1A, (1R,2S,5R)-5-methyl-2-isopropenylcyclohexanol]
Visual evaluation of melanin production inhibition (whiteness of cell sediment) ([1]; 6.25 ppm in medium): − | Visual evaluation of melanin production inhibition (whiteness of cell sediment) ([1]; 12.5 ppm in medium): ++ | Visual evaluation of melanin production inhibition (whiteness of cell sediment) ([1]; 25 ppm in medium): +++

CC1CCC(C(C)C)C(OCC(O)CO)C1 (stereo not shown) [Compound 1B, 3-(2-isopropyl-5-methylcyclohexyloxy)propane-1,2-diol]
Visual evaluation of melanin production inhibition (whiteness of cell sediment) ([1]; 3.13 ppm in medium): + | Visual evaluation of melanin production inhibition (whiteness of cell sediment) ([1]; 6.25 ppm in medium): ++ | Melanin production inhibition ratio [2]: 37.0% | Melanin production-inhibitory activity compared with arbutin in the quantification test [2]: higher melanin production-inhibitory activity than arbutin | Cell growth ratio [3]: 93.2%

CC1CCC(C(C)C)C(OCCCO)C1 (stereo not shown) [Compound 1C, 3-(2-isopropyl-5-methylcyclohexyloxy)propan-1-ol]
Visual evaluation of melanin production inhibition (whiteness of cell sediment) ([1]; 3.13 ppm in medium): − | Visual evaluation of melanin production inhibition (whiteness of cell sediment) ([1]; 6.25 ppm in medium): ++ | Visual evaluation of melanin production inhibition (whiteness of cell sediment) ([1]; 12.5 ppm in medium): +++ | Activity compared with arbutin in the visual evaluation test ([1]; comparison with arbutin): almost the same activity as that of arbutin | Melanin production inhibition ratio [2]: 52.0% | Melanin production-inhibitory activity compared with arbutin in the quantification test [2]: higher melanin production-inhibitory activity than arbutin | Cell growth ratio [3]: 103.1%

CC(O)CC(=O)OC1CC(C)CCC1C(C)C (stereo not shown) [Compound 1D, 2-isopropyl-5-methylcyclohexyl 3-hydroxybutyrate]
Visual evaluation of melanin production inhibition (whiteness of cell sediment) ([1]; 3.13 ppm in medium): − | Visual evaluation of melanin production inhibition (whiteness of cell sediment) ([1]; 6.25 ppm in medium): ++ | Visual evaluation of melanin production inhibition (whiteness of cell sediment) ([1]; 12.5 ppm in medium): +++ | Activity compared with arbutin in the visual evaluation test ([1]; comparison with arbutin): almost the same activity as that of arbutin | Melanin production inhibition ratio [2]: 52.8% | Melanin production-inhibitory activity compared with arbutin in the quantification test [2]: higher melanin production-inhibitory activity than arbutin | Cell growth ratio [3]: 104.9%

CC1CCC(C(C)C)C(OCCOCCO)C1 (stereo not shown) [Compound 1E, 2-(2-(2-isopropyl-5-methylcyclohexyloxy)ethoxy)ethanol]
Visual evaluation of melanin production inhibition (whiteness of cell sediment) ([1]; 3.13 ppm in medium): − | Visual evaluation of melanin production inhibition (whiteness of cell sediment) ([1]; 6.25 ppm in medium): + | Visual evaluation of melanin production inhibition (whiteness of cell sediment) ([1]; 12.5 ppm in medium): ++ | Melanin production inhibition ratio [2]: 23.3% | Cell growth ratio [3]: 96.4%

CC(O)COC1CC(C)CCC1C(C)C (stereo not shown) [Compound 1F, 1-(2-isopropyl-5-methylcyclohexyloxy)propan-2-ol]
Visual evaluation of melanin production inhibition (whiteness of cell sediment) ([1]; 6.25 ppm in medium): ++ | Visual evaluation of melanin production inhibition (whiteness of cell sediment) ([1]; 12.5 ppm in medium): +++ | Activity compared with arbutin in the visual evaluation test ([1]; comparison with arbutin): almost the same activity as that of arbutin

CC(=O)CC(=O)OC1CC(C)CCC1C(C)C (stereo not shown) [Compound 1G, 2-isopropyl-5-methylcyclohexyl 3-oxobutyrate]
Visual evaluation of melanin production inhibition (whiteness of cell sediment) ([1]; 3.13 ppm in medium): + | Visual evaluation of melanin production inhibition (whiteness of cell sediment) ([1]; 6.25 ppm in medium): +++ | Activity compared with arbutin in the visual evaluation test at 6.25 ppm ([1]; 6.25 ppm, comparison with arbutin): higher activity than arbutin | Visual evaluation of melanin production inhibition (whiteness of cell sediment) ([1]; 12.5 ppm in medium): +++ | Melanin production inhibition ratio [2]: 41.5% | Melanin production-inhibitory activity compared with arbutin in the quantification test [2]: higher melanin production-inhibitory activity than arbutin | Cell growth ratio [3]: 87.8%

CCNC(=O)C1CC(C)CCC1C(C)C (stereo not shown) [Compound 2A, N-ethyl-5-methyl-2-isopropylcyclohexane carboxamide, reference compound]
Visual evaluation of melanin production inhibition (whiteness of cell sediment) ([1]; 6.25 ppm in medium): − | Visual evaluation of melanin production inhibition (whiteness of cell sediment) ([1]; 12.5 ppm in medium): + | Visual evaluation of melanin production inhibition (whiteness of cell sediment) ([1]; 25 ppm in medium): ++ | Visual evaluation of melanin production inhibition (whiteness of cell sediment) ([1]; 50 ppm in medium): +++

CNC(=O)C(C)(C(C)C)C(C)C [Compound 2B, N,2,3-trimethyl-2-isopropylbutanamide, reference compound]
Visual evaluation of melanin production inhibition (whiteness of cell sediment) ([1]; 25 ppm in medium): − | Visual evaluation of melanin production inhibition (whiteness of cell sediment) ([1]; 50 ppm in medium): +
